Assay results reported in patent US5326788A, “Biological fluid purification system” (priority 1992, dated 1994).

Columns and labels:
HIV = test: Infectivity (ability to replicate in culture) of HIV derived from H9 cell cultures; assay type: cell-based, Human Immunodeficiency Virus (HIV)
Protocol: FIG. 2 is a graph showing the effect of hypericin and pseudohypericin on the infectivity of HIV cultured from an AIDS patient.
(§1) In FIG. 1, open squares represent hypericin-treated and pluses represent pseudohypericin treated HIV. […] Inactivation of the reverse transcriptase activity of the virions was not a result of a direct inhibition of reverse transcriptase activity per se, as incubation of either compound directly with purified reverse transcriptase from either avian myeloblastosis virus or murine leukemia virus had no effect on enzyme activity. Furthermore, aliquots of HIV derived from these H9 cell cultures lost the ability to replicate in culture when exposed to as little as 0.77 micrograms/ml of hypericin.

[1] = system: purified reverse transcriptase from avian myeloblastosis virus; test: Direct incubation with purified reverse transcriptase; assay type: biochemical
Protocol: as §1

[2] = molecular target: purified reverse transcriptase from murine leukemia virus (Moloney murine leukemia virus isolate Shinnick, UniProt P03355); test: as above; assay type: biochemical
Protocol: as §1

[3] = Toxicity of hypericin administered to mice; assay type: in vivo
Protocol: In general, up to 100 mg and preferably between 1 mg and about 10 mg of the antiviral compounds may be employed to completely eliminate the infectivity properties of human retroviruses such as HIV in one unit of whole blood. Intravenous transfusion or administration of blood containing this level of hypericin for example should pose no serious toxicity or tolerance threat to human recipients of such transfused blood. […] This correlates with a dose of approximately 25 mg i.v. in man, or twenty times the dose that would be received from a transfusion of 1 unit of whole blood containing 2.5 micrograms/ml hypericin. In addition, i.e. administration of 1.2 mg of hypericin in phosphate buffered saline (PBS) containing 10% ethanol to a mouse was not lethal. (Naturally, it is preferred to use the minimum amount of the antiviral compounds that is effective to terminate the infectivity of the target virus in a given biological fluid. The minimum effective amount required for abolishing infectivity of a particular viral species suspected to be present in a biological fluid can be easily determined through the exercise of routine experimentation.)

Radiation Leukemia Virus = test: Inhibition of virus budding from infected AQR cells, reverse transcriptase assay; assay type: cell-based, Radiation Leukemia Virus in AQR (murine leukemia) cells; conditions: 1 hour incubation, supernatant after 24 hours; read-out: concentration completely inhibiting virus budding
Protocol: AQR (murine leukemia) cells producing Radiation Leukemia Virus (prepared as described in Meruelo, D., J. Exp. Med. 149: 898-909, 1979; and Bach, R. G. et al., J. Exp. Med. 160: 270-285, 1984) were incubated for 1 hour with various concentrations of synthetic hypericin (micrograms/ml shown in FIG. 3). The cells were then washed four times with phosphate buffer saline and incubated in fresh culture medium for 24 or 48 hours. Supernatants were then collected, pelleted (at 1000×g) for 15 minutes to remove whole cells and then repelleted at 100,000×g for 1 hour to collect virus particles. The second pellet was used for a reverse transcriptase assay, conducted as described in U.S. application Ser. No. 084,008 (Aug. 10, 1987) and 172,064 (Mar. 23, 1988).
The results of the reverse transcriptase assay are plotted in FIG. 3. […] Thus, the minimum incubation period that would destroy the ability of HIV-infected cells to participate in propagation of the HIV infection is likely to be much smaller than the 24 hours employed as the minimum waiting period in this assay.

HIV-1 = test: Syncytia assay, H9 cells infected with IIIb isolate of HIV co-cultured with Supt-1 cells; assay type: cell-based; conditions: 24 hours
Protocol: (§2) In order to assess the effects of Hy and Ps on the ability of HIV to form syncytia, the following experiments were performed. For the analysis of HIV-1, an entry syncytia assay was performed by co-culturing H9 cells (described in Popovic, M. et al. Science 224: 497-500, 1984) infected with the IIIb isolate of HIV with uninfected Supt-1 cells (Walker, B. D. et al. Proc. Nat. Acad. Sci. (USA) 84: 8120-8124, 1987) as the target cell. HIV-2 was tested using HUT78 cells (obtained from the National Institute of Health by reference to Depository Catalog, Reagent Program, Bethesda, Md.) infected with the ROD-2 isolate of HIV-2 co-cultured with uninfected H9 target cells. The infected cells were plated in 96 well plates (10^4 cells per well in RPM1 1640 medium with 10% fetal calf serum) and incubated with or without dilutions of Ps or Hy for 30 minutes at 37° C. 1×10^5 target cells were then added per well and the number of syncytia were quantitatively and qualitatively determined after 24 hours.

HIV-2 = test: Syncytia assay, HUT78 cells infected with ROD-2 isolate co-cultured with H9 cells; assay type: cell-based; conditions: 24 hours
Protocol: as §2

Cc1cc(O)c2c(=O)c3c(O)cc(O)c4c5c(O)cc(O)c6c(=O)c7c(O)cc(C)c8c1c2c(c34)c(c78)c65 [hypericin]
concentration abolishing infectivity of HIV (loss of ability to replicate in culture) (HIV): 0.77 micrograms/ml
minimal effective concentration (HIV; Human immunodeficiency virus 1, read-out: concentration abolishing infectivity of HIV (loss of ability to replicate in culture)): 0.77 µg/mL
effect on enzyme activity of purified reverse transcriptase [1]: no effect
effect on enzyme activity of purified reverse transcriptase [2]: no effect
corresponding dose in man ([3]; i.v., extrapolated from 100 micrograms per mouse): approximately 25 mg
toxic side effects ([3]; mice, intravenous, 100 micrograms per mouse): not exhibited any toxic side effects
lethality ([3]; mouse, 1.2 mg in PBS containing 10% ethanol): not lethal
IC100 (Radiation Leukemia Virus): 10 µg/mL
syncytia score (number 0-4, size S/M/L) (HIV-1; 7 nanograms): 4 L
syncytia score (number 0-4, size S/M/L) (HIV-1; 14 nanograms): 4 L
syncytia score (number 0-4, size S/M/L) (HIV-1; 28 nanograms): 3 L
syncytia score (number 0-4, size S/M/L) (HIV-1; 56 nanograms): 0
syncytia score (number 0-4, size S/M/L) (HIV-1; 112 nanograms): 0
syncytia score (number 0-4, size S/M/L) (HIV-1; 225 nanograms): 0
syncytia score (number 0-4, size S/M/L) (HIV-1; 450 nanograms): 0
syncytia score (number 0-4, size S/M/L) (HIV-1; 900 nanograms): 0
syncytia score (number 0-4, size S/M/L) (HIV-1; 1800 nanograms): 0
syncytia score (number 0-4, size S/M/L) (HIV-2; 7 nanograms): 4 L
syncytia score (number 0-4, size S/M/L) (HIV-2; 14 nanograms): 4 L
syncytia score (number 0-4, size S/M/L) (HIV-2; 28 nanograms): 4 L
syncytia score (number 0-4, size S/M/L) (HIV-2; 56 nanograms): 3 M
syncytia score (number 0-4, size S/M/L) (HIV-2; 112 nanograms): 1S
syncytia score (number 0-4, size S/M/L) (HIV-2; 225 nanograms): 0
syncytia score (number 0-4, size S/M/L) (HIV-2; 450 nanograms): 0
syncytia score (number 0-4, size S/M/L) (HIV-2; 900 nanograms): 0
syncytia score (number 0-4, size S/M/L) (HIV-2; 1800 nanograms): 0
